From ChEMBL document CHEMBL1139392, “Synthesis and antibacterial activities of novel oxazolidinones having cyclic sulfonamide moieties” (2008)
≈ marks a conversion by molar mass, not a printed value.

Experiments:
Type in all cases: functional
[1] = system: Enterococcus; experiment: Antibacterial activity against vancomycin-resistant Enterococcus 1 after 18 to 20 hrs by agar dilution method
[2] = system: Enterococcus; experiment: Antibacterial activity against vancomycin-resistant Enterococcus 2 after 18 to 20 hrs by agar dilution method
[3] = system: Enterococcus; experiment: Antibacterial activity against vancomycin-resistant Enterococcus 3 after 18 to 20 hrs by agar dilution method
[4] = system: Enterococcus; experiment: Antibacterial activity against vancomycin-resistant Enterococcus 4 after 18 to 20 hrs by agar dilution method
[5] = system: Enterococcus; experiment: Antibacterial activity against vancomycin-resistant Enterococcus 5 after 18 to 20 hrs by agar dilution method
[6] = system: Enterococcus; experiment: Antibacterial activity against vancomycin-resistant Enterococcus 6 after 18 to 20 hrs by agar dilution method
[7] = system: Staphylococcus aureus; experiment: Antibacterial activity against Staphylococcus aureus C463 after 18 to 20 hrs by agar dilution method
[8] = system: Staphylococcus; experiment: Antibacterial activity against coagulase negative Staphylococcus after 18 to 20 hrs by agar dilution method
[9] = system: Enterococcus faecalis; experiment: Antibacterial activity against Enterococcus faecalis C474 after 18 to 20 hrs by agar dilution method
[10] = system: Enterococcus faecium; experiment: Antibacterial activity against Enterococcus faecium C803 after 18 to 20 hrs by agar dilution method
[11] = system: Streptococcus pneumoniae; experiment: Antibacterial activity against Streptococcus pneumoniae C402 after 18 to 20 hrs by agar dilution method
[12] = system: Streptococcus pyogenes; experiment: Antibacterial activity against Streptococcus pyogenes ATCC 8736 after 18 to 20 hrs by agar dilution method
[13] = system: Streptococcus agalactiae; experiment: Antibacterial activity against Streptococcus agalactiae ATCC 2901 after 18 to 20 hrs by agar dilution method
[14] = system: Haemophilus influenzae; experiment: Antibacterial activity against Haemophilus influenzae after 18 to 20 hrs by agar dilution method
[15] = system: Staphylococcus aureus; experiment: Antibacterial activity against methicillin-resistant Staphylococcus aureus 1 after 18 to 20 hrs by agar dilution method
[16] = system: Enterococcus faecium; experiment: Antibacterial activity against vancomycin-resistant Enterococcus faecium 1 after 18 to 20 hrs by agar dilution method
[17] = system: Enterococcus faecium; experiment: Antibacterial activity against vancomycin-resistant Enterococcus faecium 2 after 18 to 20 hrs by agar dilution method

SMILES | MIC [1] | MIC [2] | MIC [3] | MIC [4] | MIC [5] | MIC [6] | MIC [7] | MIC [8] | MIC [9] | MIC [10] | MIC [11] | MIC [12] | MIC [13] | MIC [14] | MIC [15] | MIC [16] | MIC [17]
CC(=O)NC[C@H]1CN(c2ccc(N3CCCNS3(=O)=O)c(F)c2)C(=O)O1 | 3.12 µg/mL (≈ 8.07 µM) | 1.56 µg/mL (≈ 4.04 µM) | 0.78 µg/mL (≈ 2.02 µM) | 3.12 µg/mL (≈ 8.07 µM) | 3.12 µg/mL (≈ 8.07 µM) | 3.12 µg/mL (≈ 8.07 µM) | 3.12 µg/mL (≈ 8.07 µM) | 1.56 µg/mL (≈ 4.04 µM) | 1.56 µg/mL (≈ 4.04 µM) | 1.56 µg/mL (≈ 4.04 µM) | 0.78 µg/mL (≈ 2.02 µM) | 1.56 µg/mL (≈ 4.04 µM) | 1.56 µg/mL (≈ 4.04 µM) | 1.56 µg/mL (≈ 4.04 µM) | 1.56 µg/mL (≈ 4.04 µM) | 3.12 µg/mL (≈ 8.07 µM) | 1.56 µg/mL (≈ 4.04 µM)
CC(=O)NC[C@H]1CN(c2ccc(N3CCN(C)S3(=O)=O)c(F)c2)C(=O)O1 | 6.25 µg/mL (≈ 16.2 µM) | 6.25 µg/mL (≈ 16.2 µM) | 3.12 µg/mL (≈ 8.07 µM) | 3.12 µg/mL (≈ 8.07 µM) | 3.12 µg/mL (≈ 8.07 µM) | 3.12 µg/mL (≈ 8.07 µM) | 3.12 µg/mL (≈ 8.07 µM) | 6.25 µg/mL (≈ 16.2 µM) | 3.12 µg/mL (≈ 8.07 µM) | 3.12 µg/mL (≈ 8.07 µM) | 0.78 µg/mL (≈ 2.02 µM) | 1.56 µg/mL (≈ 4.04 µM) | 1.56 µg/mL (≈ 4.04 µM) | 3.12 µg/mL (≈ 8.07 µM) | 3.12 µg/mL (≈ 8.07 µM) | 3.12 µg/mL (≈ 8.07 µM) | 3.12 µg/mL (≈ 8.07 µM)
CC(=O)NC[C@H]1CN(c2ccc(N3CC(C)NS3(=O)=O)c(F)c2)C(=O)O1 (some centres not stated) | 6.25 µg/mL (≈ 16.2 µM) | 12.5 µg/mL (≈ 32.3 µM) | 6.25 µg/mL (≈ 16.2 µM) | 6.25 µg/mL (≈ 16.2 µM) | 12.5 µg/mL (≈ 32.3 µM) | 12.5 µg/mL (≈ 32.3 µM) | 12.5 µg/mL (≈ 32.3 µM) | 12.5 µg/mL (≈ 32.3 µM) | 6.25 µg/mL (≈ 16.2 µM) | 3.12 µg/mL (≈ 8.07 µM) | 3.12 µg/mL (≈ 8.07 µM) | 1.56 µg/mL (≈ 4.04 µM) | 3.12 µg/mL (≈ 8.07 µM) | 6.25 µg/mL (≈ 16.2 µM) | 12.5 µg/mL (≈ 32.3 µM) | 6.25 µg/mL (≈ 16.2 µM) | 6.25 µg/mL (≈ 16.2 µM)
CC(=O)NC[C@H]1CN(c2ccc(N3CCCN(C)S3(=O)=O)c(F)c2)C(=O)O1 | 1.56 µg/mL (≈ 3.9 µM) | 1.56 µg/mL (≈ 3.9 µM) | 1.56 µg/mL (≈ 3.9 µM) | 1.56 µg/mL (≈ 3.9 µM) | 1.56 µg/mL (≈ 3.9 µM) | 1.56 µg/mL (≈ 3.9 µM) | 1.56 µg/mL (≈ 3.9 µM) | 1.56 µg/mL (≈ 3.9 µM) | 1.56 µg/mL (≈ 3.9 µM) | 1.56 µg/mL (≈ 3.9 µM) | 0.78 µg/mL (≈ 1.95 µM) | 0.78 µg/mL (≈ 1.95 µM) | 1.56 µg/mL (≈ 3.9 µM) | 1.56 µg/mL (≈ 3.9 µM) | 1.56 µg/mL (≈ 3.9 µM) | 0.78 µg/mL (≈ 1.95 µM) | 1.56 µg/mL (≈ 3.9 µM)
CC(=O)NC[C@H]1CN(c2ccc(N3CC(C)(C)NS3(=O)=O)c(F)c2)C(=O)O1 | 25 µg/mL (≈ 62.4 µM) | 12.5 µg/mL (≈ 31.2 µM) | 6.25 µg/mL (≈ 15.6 µM) | 12.5 µg/mL (≈ 31.2 µM) | 12.5 µg/mL (≈ 31.2 µM) | 12.5 µg/mL (≈ 31.2 µM) | 12.5 µg/mL (≈ 31.2 µM) | 12.5 µg/mL (≈ 31.2 µM) | 12.5 µg/mL (≈ 31.2 µM) | 25 µg/mL (≈ 62.4 µM) | 12.5 µg/mL (≈ 31.2 µM) | 6.25 µg/mL (≈ 15.6 µM) | 12.5 µg/mL (≈ 31.2 µM) | 25 µg/mL (≈ 62.4 µM) | 12.5 µg/mL (≈ 31.2 µM) | 12.5 µg/mL (≈ 31.2 µM) | 12.5 µg/mL (≈ 31.2 µM)
CC(=O)NC[C@H]1CN(c2ccc(N3CCN(Cc4ccccc4)S3(=O)=O)c(F)c2)C(=O)O1 | 6.25 µg/mL (≈ 13.5 µM) | 6.25 µg/mL (≈ 13.5 µM) | 1.56 µg/mL (≈ 3.37 µM) | 6.25 µg/mL (≈ 13.5 µM) | 6.25 µg/mL (≈ 13.5 µM) | 6.25 µg/mL (≈ 13.5 µM) | 6.25 µg/mL (≈ 13.5 µM) | 6.25 µg/mL (≈ 13.5 µM) | 6.25 µg/mL (≈ 13.5 µM) | 6.25 µg/mL (≈ 13.5 µM) | 6.25 µg/mL (≈ 13.5 µM) | 6.25 µg/mL (≈ 13.5 µM) | 6.25 µg/mL (≈ 13.5 µM) | 3.12 µg/mL (≈ 6.75 µM) | 6.25 µg/mL (≈ 13.5 µM) | 6.25 µg/mL (≈ 13.5 µM) | 1.56 µg/mL (≈ 3.37 µM)
CC(=O)NC[C@H]1CN(c2ccc(N3CCOS3(=O)=O)c(F)c2)C(=O)O1 | 1.56 µg/mL (≈ 4.18 µM) | 1.56 µg/mL (≈ 4.18 µM) | 3.12 µg/mL (≈ 8.36 µM) | 3.12 µg/mL (≈ 8.36 µM) | 1.56 µg/mL (≈ 4.18 µM) | 3.12 µg/mL (≈ 8.36 µM) | 3.12 µg/mL (≈ 8.36 µM) | 3.12 µg/mL (≈ 8.36 µM) | 1.56 µg/mL (≈ 4.18 µM) | 1.56 µg/mL (≈ 4.18 µM) | 1.56 µg/mL (≈ 4.18 µM) | 0.78 µg/mL (≈ 2.09 µM) | 0.39 µg/mL (≈ 1.04 µM) | 3.12 µg/mL (≈ 8.36 µM) | 3.12 µg/mL (≈ 8.36 µM) | 1.56 µg/mL (≈ 4.18 µM) | 1.56 µg/mL (≈ 4.18 µM)
CC(=O)NC[C@H]1CN(c2ccc(N3CCN(C(=O)OC(C)(C)C)S3(=O)=O)c(F)c2)C(=O)O1 | 25 µg/mL (≈ 52.9 µM) | 25 µg/mL (≈ 52.9 µM) | 6.25 µg/mL (≈ 13.2 µM) | 6.25 µg/mL (≈ 13.2 µM) | 12.5 µg/mL (≈ 26.5 µM) | 12.5 µg/mL (≈ 26.5 µM) | 12.5 µg/mL (≈ 26.5 µM) | 12.5 µg/mL (≈ 26.5 µM) | 12.5 µg/mL (≈ 26.5 µM) | 25 µg/mL (≈ 52.9 µM) | 25 µg/mL (≈ 52.9 µM) | 6.25 µg/mL (≈ 13.2 µM) | 6.25 µg/mL (≈ 13.2 µM) | 6.25 µg/mL (≈ 13.2 µM) | 12.5 µg/mL (≈ 26.5 µM) | 12.5 µg/mL (≈ 26.5 µM) | 12.5 µg/mL (≈ 26.5 µM)
CC(=O)NC[C@H]1CN(c2ccc(N3CCNS3(=O)=O)c(F)c2)C(=O)O1 | 0.78 µg/mL (≈ 2.09 µM) | 0.39 µg/mL (≈ 1.05 µM) | 0.78 µg/mL (≈ 2.09 µM) | 0.78 µg/mL (≈ 2.09 µM) | 0.39 µg/mL (≈ 1.05 µM) | 0.78 µg/mL (≈ 2.09 µM) | 0.39 µg/mL (≈ 1.05 µM) | 0.2 µg/mL (≈ 0.537 µM) | 0.2 µg/mL (≈ 0.537 µM) | 0.39 µg/mL (≈ 1.05 µM) | 0.2 µg/mL (≈ 0.537 µM) | 0.2 µg/mL (≈ 0.537 µM) | 0.2 µg/mL (≈ 0.537 µM) | 0.2 µg/mL (≈ 0.537 µM) | 0.2 µg/mL (≈ 0.537 µM) | 0.2 µg/mL (≈ 0.537 µM) | 0.2 µg/mL (≈ 0.537 µM)
CCN1CCN(c2ccc(N3C[C@H](CNC(C)=O)OC3=O)cc2F)S1(=O)=O | 3.12 µg/mL (≈ 7.79 µM) | 6.25 µg/mL (≈ 15.6 µM) | 3.12 µg/mL (≈ 7.79 µM) | 3.12 µg/mL (≈ 7.79 µM) | 6.25 µg/mL (≈ 15.6 µM) | 3.12 µg/mL (≈ 7.79 µM) | 6.25 µg/mL (≈ 15.6 µM) | 6.25 µg/mL (≈ 15.6 µM) | 3.12 µg/mL (≈ 7.79 µM) | 1.56 µg/mL (≈ 3.9 µM) | 0.78 µg/mL (≈ 1.95 µM) | 0.78 µg/mL (≈ 1.95 µM) | 3.12 µg/mL (≈ 7.79 µM) | 3.12 µg/mL (≈ 7.79 µM) | 6.25 µg/mL (≈ 15.6 µM) | 6.25 µg/mL (≈ 15.6 µM) | 3.12 µg/mL (≈ 7.79 µM)
CC(=O)NC[C@H]1CN(c2ccc(N3CCOCC3)c(F)c2)C(=O)O1 [LINEZOLID] | 0.78 µg/mL (≈ 2.31 µM) | 1.56 µg/mL (≈ 4.62 µM) | 1.56 µg/mL (≈ 4.62 µM) | 1.56 µg/mL (≈ 4.62 µM) | 1.56 µg/mL (≈ 4.62 µM) | 1.56 µg/mL (≈ 4.62 µM) | 1.56 µg/mL (≈ 4.62 µM) | 1.56 µg/mL (≈ 4.62 µM) | 1.56 µg/mL (≈ 4.62 µM) | 1.56 µg/mL (≈ 4.62 µM) | 0.39 µg/mL (≈ 1.16 µM) | 0.39 µg/mL (≈ 1.16 µM) | 1.56 µg/mL (≈ 4.62 µM) | 1.56 µg/mL (≈ 4.62 µM) | 3.12 µg/mL (≈ 9.25 µM) | 1.56 µg/mL (≈ 4.62 µM) | 0.78 µg/mL (≈ 2.31 µM)
